Earlier results as cited in patent publication US20020004489A1, “Retinoid receptor interacting polynucleotides, polypeptides, and antibodies” (priority 1999, published 2002).

Experiments:
[1] = system: protease inhibitor-resistant viruses
[2] = system: viruses containing the K103N mutation
[3] = system: lamivudine-resistant isolates
[4] = deletion of 8-10 C-terminal residues, versus undeleted protein

Molecule: Cc1ccccc1CNC(=O)[C@H]1N(C(=O)[C@@H](O)[C@H](Cc2ccccc2)NC(=O)c2cccc(O)c2C)CSC1(C)C [AG-1776]
- in vitro activity against protease inhibitor-resistant viruses [1]: in vitro activity against protease inhibitor-resistant viruses

Molecule: CC(C)c1nc(COC(N)=O)n(Cc2ccncc2)c1Sc1cc(Cl)cc(Cl)c1 [CAPRAVIRINE]
- activity against K103N mutants [2]: activity against viruses containing the K103N mutation

Molecule: Nc1nc(=O)n([C@@H]2CS[C@H](CO)O2)cc1F [COVIRACIL, emtricitabine]
- activity in vitro relative to lamivudine (3TC) (HIV; in vitro, greater activity than lamivudine (3TC)): 3- to 10 fold

Molecule: Nc1nc(=O)n([C@H]2C=C[C@@H](CO)O2)cc1F [DD4FC]
- activity against AZT/3TC-resistant virus (AZT/3TC-resistant virus): activity against AZT/3TC-resistant virus

Molecule: CC[C@H]1C(=O)Nc2ccc(F)cc2N1C(=O)OC(C)C [GW-420867X]
- activity relative to HBY097 (HIV; greater activity than HBY097): 25 fold
- activity against K103N mutants [2]: active against K103N mutants

Molecule: C[C@H](Sc1nc(N)cc(Cl)n1)c1cc2ccoc2cn1 [PNU-142721]
- activity relative to its predecessor delavirdine (HIV; greater activity than delavirdine): 20- to 50 fold
- activity against K103N mutants [2]: active against K103N mutants

Molecule: Nc1ccn([C@H]2CO[C@@H](CO)S2)c(=O)n1 [dOTC]
- activity against lamivudine-resistant isolates [3]: retains activity against a substantial proportion of lamivudine-resistant isolates

Molecule: Interferon gamma
- activity after deleting 8-10 amino acid residues from the carboxy terminus [4]: up to ten times higher activity
